The results in this text go back to ChEMBL document CHEMBL5257097, “An Isomer of Galidesivir That Potently Inhibits Influenza Viruses and Members of the Bunyavirales Order” (ACS Med Chem Lett, 2023).

Data set [1] concerns dengue virus type 2. Put plainly: Antiviral activity against DENV-2 infected in human Huh-7 cells assessed as reduction in virus-induced cytopathic effect measured after 15 to 30 mins by neutral red based analysis. It counts as functional, organism-based. (In general: Damage to the host cells serves as the signal in cytopathic effect assays.)
A short description of data set [2]: Cytotoxicity against vervet monkey MA-104 cells infected with MERS-CoV assessed as reduction in cell viability by visual assay. The format is toxicity, cell-based. The following applies: cercopithecus pygerythrus.
Data set [3] is described as follows: Cytotoxicity against vervet monkey MA-104 cells infected with MERS-CoV assessed as reduction in cell viability by neutral red dye based assay. It counts as toxicity. The following applies: cercopithecus pygerythrus.
The nature of data set [4]: Cytotoxicity against African green monkey Vero cells infected with DENV-2 assessed as reduction in cell viability by neutral red dye based assay. The format is toxicity. The following applies: chlorocebus sabaeus.
Data set [5] in a line: Selectivity index, ratio of CC50 for cytotoxicity against African green monkey Vero cells infected with DENV-2 assessed as reduction in cell viability by visual analysis to EC50 for antiviral activity against DENV-2 infected in human Huh-7 cells assessed as reduction in virus-induced cytopathic effect by visual analysis. The format is toxicity, cell-based. To be noted: read-out: Ratio CC50/EC50.

Data set [6] concerns dengue virus type 2. Put plainly: Antiviral activity against DENV-2 infected in African green monkey Vero cells assessed as reduction in virus-induced cytopathic effect measured after 15 to 30 mins by neutral red based analysis. The format is functional, organism-based.
Data set [7] has as its system dengue virus type 2. In words: Antiviral activity against DENV-2 infected in African green monkey Vero cells assessed as reduction in virus-induced cytopathic effect measured after 15 to 30 mins by visual analysis. It counts as functional, organism-based.
Data set [8] can be described thus: Cytotoxicity against dog MDCK cells infected with Influenza A virus H7N9 assessed as reduction in cell viability by visual analysis. The format is toxicity, cell-based, Canis lupus familiaris.
Data set [9] is described as follows: Selectivity index, ratio of CC50 for cytotoxicity against African green monkey Vero cells infected with Tacaribe virus assessed as reduction in cell viability by visual analysis to EC50 for antiviral activity against Tacaribe virus infected in African green monkey Vero cells assessed as reduction in viral replication by visual analysis. The following applies: read-out: Ratio CC50/EC50. The format is toxicity, cell-based.

In data set [10] the test system is Influenza A virus. In words: Antiviral activity against Influenza A virus H1N1 infected in dog MDCK cells assessed as inhibition of viral replication measured after 15 to 30 mins by visual analysis. It counts as functional, organism-based.
Data set [11] has as its system Influenza A virus. Put plainly: Antiviral activity against Influenza A virus H1N1 infected in dog MDCK cells assessed as reduction in virus yield measured after 3 days by visual analysis. The format is functional. The following applies: 72 h, time 3 day.
Data set [12] is described as follows: Selectivity index, ratio of CC50 for cytotoxicity against African green monkey Vero 76 cells infected with La Crosse virus assessed as reduction in cell viability by neutral red dye analysis to EC50 for antiviral activity against La Crosse virus infected in African green monkey Vero 76 cells assessed as reduction in viral replication by neutral red dye analysis. The format is toxicity, cell-based. To be noted: read-out: Ratio CC50/EC50.

In another data set the test system is Heartland virus. Put plainly: Antiviral activity against Heartland virus infected in African green monkey Vero E6 cells assessed as reduction in viral yield measured for 3 days. The format is functional. The following applies: Vero C1008, 72 h, time 3 day.
Data set [13] can be described thus: Cytotoxicity against African green monkey Vero cells infected with Tacaribe virus assessed as reduction in cell viability by visual analysis. The format is toxicity, cell-based. The following applies: chlorocebus sabaeus.
A short description of data set [14]: Selectivity index, ratio of CC50 for cytotoxicity against dog MDCK cells infected with Influenza A virus H3N2 assessed as reduction in cell viability by visual analysis to EC50 for antiviral activity against Influenza A virus H3N2 infected in dog MDCK cells assessed as inhibition of viral replication by visual analysis. The following applies: read-out: Ratio CC50/EC50. It counts as toxicity, cell-based.

Data set [15] is described as follows: Cytotoxicity against African green monkey Vero E6 cells infected with Maporal virus assessed as reduction in cell viability. The format is toxicity, cell-based, Vero C1008. The following applies: chlorocebus sabaeus.
For data set [16], the system named is Influenza A virus. Put plainly: Antiviral activity against Influenza A virus H3N2 infected in dog MDCK cells assessed as inhibition of viral replication measured after 15 to 30 mins by visual analysis. It counts as functional, organism-based.
Data set [17] can be described thus: Cytotoxicity against African green monkey Vero E6 cells infected with Rift Valley fever virus assessed as reduction in cell viability. To be noted: chlorocebus sabaeus. The format is toxicity, cell-based, Vero C1008.
Data set [18] in a line: Selectivity index, ratio of CC50 for cytotoxicity against African green monkey Vero cells infected with JUNV assessed as reduction in cell viability by neutral red dye based analysis to EC50 for antiviral activity against JUNV infected in African green monkey Vero cells assessed as reduction in viral replication by neutral red dye based analysis. The format is toxicity. To be noted: read-out: Ratio CC50/EC50.

Data set [19] is described as follows: Selectivity index, ratio of CC50 for cytotoxicity against African green monkey Vero E6 cells infected with Oropouche virus assessed as reduction in cell viability by visual analysis to EC50 for antiviral activity against Oropouche virus infected in African green monkey Vero E6 cells assessed as reduction in viral replication by visual analysis. The format is toxicity, cell-based, Vero C1008. The following applies: read-out: Ratio CC50/EC50.

Data set [20] can be described thus: Cytotoxicity against African green monkey Vero cells infected with Tacaribe virus assessed as reduction in cell viability by neutral red dye based analysis. It counts as toxicity. To be noted: chlorocebus sabaeus.
The next data set has as its system Oropouche virus. In words: Antiviral activity against Oro-pouche virus infected in African green monkey Vero E6 cells assessed as inhibition of viral replication by neutral red dye based analysis. The format is functional, organism-based. To be noted: Vero C1008.
Data set [21] is described as follows: Toxicity in BALB/c mouse infected with influenza A/Ca/04/09 (H1N1) assessed as mortality at 100 mg/kg, ip measured every day for 6 days. It counts as organism-based. To be noted: in vivo, time 6 day, read-out: Activity.
Data set [22] in a line: Cytotoxicity against African green monkey Vero 76 cells infected with Punta Toro virus assessed as reduction in cell viability by neutral red dye based analysis. It counts as toxicity. The following applies: chlorocebus sabaeus.
The subject of a further data set is Tacaribe virus. Put plainly: Antiviral activity against Tacaribe virus infected in African green monkey Vero cells assessed as inhibition of viral replication by visual analysis. The following applies: Mammarenavirus tacaribeense. The format is functional, organism-based.
Data set [23] in a line: Selectivity index, ratio of CC50 for cytotoxicity against dog MDCK cells infected with Influenza A virus H7N9 assessed as reduction in cell viability by neutral red dye based analysis to EC50 for antiviral activity against Influenza A virus H7N9 infected in dog MDCK cells assessed as inhibition of viral replication by neutral red dye based analysis. It counts as toxicity. To be noted: read-out: Ratio CC50/EC50.

Data set [24] can be described thus: Cytotoxicity against African green monkey Vero E6 cells infected with Heartland virus assessed as reduction in cell viability. The format is toxicity, cell-based, Vero C1008. The following applies: chlorocebus sabaeus.
Data set [25] relates to Influenza A virus. In words: Antiviral activity against Influenza A virus H7N9 infected in dog MDCK cells assessed as inhibition of viral replication measured after 15 to 30 mins by visual analysis. The format is functional, organism-based.
A short description of data set [26]: Selectivity index, ratio of CC50 for cytotoxicity against dog MDCK cells infected with Influenza A virus H3N2 assessed as reduction in cell viability by neutral red dye based analysis to EC50 for antiviral activity against Influenza A virus H3N2 infected in dog MDCK cells assessed as inhibition of viral replication by neutral red dye based analysis. The following applies: read-out: Ratio CC50/EC50. The format is toxicity.

A short description of data set [27]: Toxicity in BALB/c mouse infected with influenza A/Ca/04/09 (H1N1) assessed as mortality at 300 mg/kg, ip measured every day for 6 days. It counts as organism-based. The following applies: in vivo, time 6 day, read-out: Activity.
The next data set has as its system Punta Toro virus. In words: Antiviral activity against Punta Toro virus infected in African green monkey Vero 76 cells assessed as inhibition of viral replication by neutral red dye based analysis. The format is functional, organism-based.
Data set [28] in a line: Cytotoxicity against African green monkey Vero cells infected with Pichinde virus assessed as reduction in cell viability by visual analysis. The following applies: chlorocebus sabaeus. It counts as toxicity, cell-based.
For data set [29], the system named is Influenza A virus. Put plainly: Antiviral activity against Influenza A virus H3N2 infected in dog MDCK cells assessed as inhibition of viral replication measured after 15 to 30 mins by neutral red dye based analysis. It counts as functional, organism-based.
Data set [30] in a line: Selectivity index, ratio of CC50 for cytotoxicity against dog MDCK cells infected with Influenza B virus assessed as reduction in cell viability by visual analysis to EC90 for antiviral activity against Influenza B virus infected in dog MDCK cells assessed as reduction in viral yield by visual analysis. The format is toxicity, cell-based.
Data set [31] has as its system Influenza A virus. Put plainly: Antiviral activity against Influenza A virus H7N9 infected in dog MDCK cells assessed as inhibition of viral replication measured after 15 to 30 mins by neutral red dye based analysis. It counts as functional, organism-based.

A word on the EC50: it is the concentration that produces a half-maximal response. Broadly, the CC50 is the concentration that lowers cell viability or growth by half. Broadly, the EC90 is the concentration at which the effect reaches the 90% level.

Structures are written as SMILES. A value given as a limit tells only on which side of the number the result lay.

Consider `Nc1ncnc2c([C@@H]3N[C@H](CO)[C@@H](O)[C@H]3O)c[nH]c12` [GALIDESIVIR], for which the figures for the EC50 in the data set with dengue virus type 2 [1], with dengue virus type 2 [6] and in the data set with dengue virus type 2 [7] were 16 µM, 15 µM and 4.2 µM, respectively. Further, the CC50 in [2], in data set [3] and in data set [4] was greater than 100 µM throughout. In addition, in [5], the selectivity ratio was greater than 24.

As to `Nc1ncnn2c([C@@H]3N[C@H](CO)[C@@H](O)[C@H]3O)ccc12`, the CC50 in data set [8] was found to be 32 µM; in data set [13] it was 12 µM; in data set [15], 13 µM; in data set [17], 8.6 µM; in data set [20] it was 6.6 µM; in data set [22] it was 10 µM. The CC50 in data set [24] came out at 13 µM; in [28], 16 µM. In addition, the selectivity ratio is 32 in data set [9]; greater than 240 in data set [12]; 38 in [14]; 34 in [18]; 62 in data set [19]; 77 in [23]. Further, the selectivity ratio in [26] is 44; in [30], 50. The concentration giving a half-maximal response (EC50) in the data set with Influenza A virus [10] stood at 0.32 µM; with dengue virus type 2 [1], 0.38 µM; in the data set on Influenza A virus [16], 0.32 µM; in the data set with Oropouche virus, 0.2 µM; in the data set with Tacaribe virus, 0.37 µM; in the data set with Influenza A virus [25], 0.42 µM. The 50% effective concentration (EC50) in the data set with Punta Toro virus was 0.27 µM; in the data set with Influenza A virus [29], 0.31 µM; in the data set with Influenza A virus [31], 0.39 µM. The 90% effect concentration (EC90) in the data set with Influenza A virus [11] was determined as 0.1 µM; in the data set with Heartland virus, 0.13 µM. In addition, the mortality at 144 h in data set [21] amounted to 72%; in [27] it was 100%.
